Results taken from US20030050236A1, “Compounds that enhance tumor death” (The University of Chicago, priority 2000, published 2003).
Where a name gives a salt, the structure may show the parent alone. Read-outs that look alike come from different tables or passages of the source. *1 amine or outer side, *2 acyl side, *3 side chain or, on linkers, in order; H or OH if unused. Where a SMILES comes first, the peptide text is derived from it. Bridges are numbered along the chain shown (N, C = ends). Roman numbers before positions name the chains, in order. Where no end group is shown, it is not given here. [ ]: non-standard residue; d: D form. Actinocin(9to1) = Cc1c2oc3c(C)ccc(C(=O)[*:1])c3nc-2c(C(=O)[*:2])c(N)c1=O; NMeV = CN[C@H](C(=O)O)C(C)C; Dap = NC[C@H](N)C(=O)O; Sar = CNCC(=O)O

Experiments:
[1] = system: H-Ras- and N-Ras-encoded p21s; settings: cited from earlier work
[2] = cited from earlier work; for fraction of dose excreted / recovered in the urine: unchanged, intact or active drug
PPT1 [3] = molecular target: T1, PPT1 (Homo sapiens, UniProt P50897); settings: cited from earlier work
T1 sequence (P50897 28-306): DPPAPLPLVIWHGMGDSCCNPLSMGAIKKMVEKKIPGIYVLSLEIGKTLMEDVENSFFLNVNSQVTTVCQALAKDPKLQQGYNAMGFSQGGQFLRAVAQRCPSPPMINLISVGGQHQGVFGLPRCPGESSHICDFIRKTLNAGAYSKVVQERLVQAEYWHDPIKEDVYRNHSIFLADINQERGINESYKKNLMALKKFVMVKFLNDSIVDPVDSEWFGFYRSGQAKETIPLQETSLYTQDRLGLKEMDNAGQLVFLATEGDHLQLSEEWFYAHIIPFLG

[4] = cited from earlier work
[5] = system: LA-N-5 human neuroblastoma cells; experiment: Cell viability / cell death by MTT assay; format: cell-based; settings: LY-294002 30 μM, C2 ceramide 25 μM; 24 hrs
Experimental: LA-N-5 human neuroblastoma cells were grown in DMEM supplemented with 10% fetal bovine serum and 1% gentamicin. […] Cell death was measured by the MTT method (Cho et al., 2000a; Cho et al., 2000b; Cho et al., 2000c).

[6] = multiple myeloma, oral administration; cited from earlier work
PPT1 [7] = molecular target: T1, PPT1; experiment: In vitro PPT1 activity assay, [14C]palmitoyl peptide substrates, cell extract
Experimental: Incubations were performed for 20 min at 37° C. and reactions terminated by addition of 1 ml of chloroform/methanol/2N HCl (2:1:0.06, v/v). After the centrifugation, organic phase was analyzed by HPTLC using n-butanol/pyridine/acetic acid/water (45:30:9:36, v/v) and [14C] palmitate release was quantified.
The peptide sequence, AcGCVKIKK (a palmitoylation site in K-Ras), was modified by substituting the SH group of cysteine with NH2 to generate diamino propionic acid, which was then acylated with palmitate (AcG-palmitoyl diamino propionate-VKIKK). […] In another set of experiments, the unmodified peptide itself (AcGCVKIKK) was used as a control to exclude the possibility of a nonspecific effect of the sequence on PPT activity.
In brief, the cell sonicate was incubated in the assay mixture containing 50 mM sodium citrate (pH 4.0) and IRY([^4C]palmitoylated)CWLRR octapeptide (2,000-4,000 cpm) for 20 min at 37° C. For the pH profile of PPT1 activity, 50 mM sodium citrate (pH 5 or 6) or 50 mM Tris-HCl (pH 7.4) was used with other conditions remaining the same. After addition of 1 ml of chloroform/methanol/2N HCl (2:1:0.06, by volume) and centrifugation, the organic phase was dried, reconstituted sample analyzed by HPTLC using n-butanol/pyridine/acetic acid/water (45:30:9:36, by volume) and the radioactive spot corresponding to [^14C] palmitate was counted.
PPT1 activity was measured as described above. In brief, the cell sonicate was incubated in the assay mixture (50 mM sodium citrate (pH 4.0) for [^14C]palmitoylated [sequence] Po peptide substrate (3,000-4,000 cpm) or 50 mM Tris (pH 7.4) for [^14C]palmitoylated MLCCMRR GAP43 peptide substrate) for 20 min at 37° C. After organic extraction, samples were analyzed by HPTLC using n-butanol/pyridine/acetic acid/water (45:30:9:36, by volume) and the radioactive spot corresponding to [^14C] palmitate was counted.

[8] = system: PPT1 overexpressing LA-N-5 cells; experiment: Cell death by MTT assay in PPT1 overexpressing cells; format: cell-based, human; settings: compared to LAN-5 cells
Experimental: Cells were plated in 24-well culture plates containing 500 μl media. After drug treatment, 50 μl MTT (5 mg/ml in PBS) was added and incubated for 20 min at 37° C. An aliquot of 500 μl of 10% sodium dodecyl sulfate in 0.01 N HCl was added. After incubating overnight, the absorbance at 570 nm was determined by spectrophotometry. Cell viability was calculated as percent cell survival by dividing absorbance [treatment-blank] by absorbance [control-blank], where treatment is the reading for the treated cells, control is for vehicle-treated cells and blank is for MTT added to the media without cells.
In order to further verify that the increased susceptibility to drug-induced apoptosis of the AS-PPT1 treated cells was due to compromised PPT1 activity, the extent of cell death induced by C2-ceramide treatment in control was compared to DAP 1-treated cells. Treatment of cells with DAP1 alone induced 5-10% death of cells at DAP1 concentrations up to 100 μM for 6 h., as measured by MTT assay (FIG. 10A). […] In these cells, neither C2-ceramide, DAP1 alone or DAP1 (100 μM) followed by C2-ceramide (30 μM) for 6 h induced more than 10% cell death (FIG. 10B).
LA-N-5 human neuroblastoma cells were grown in DMEM supplemented with 10% fetal bovine serum and 1% gentamicin. Clones of cells stably expressing PPT1 were selected and maintained by growing in media containing G418 (500 μg/ml) as described (Cho, et al., 2000b). Cell death was measured by the MTT method (Cho et al., 2000a; Cho et al., 2000b; Cho et al., 2000c).

[9] = system: HOG cells, human oligodendroglioma cells; experiment: Killing of HOG cells, MTT assay; format: cell-based; settings: 24 hours
Experimental: The relative potency of DAP1 compared to DAP1 ketoamide (DAP-KA) in killing cells was evaluated. HOG cells, human oligodendroglioma cells, were exposed for 24 hours to a) DAP1 or DAP-KA (FIG. 15A) or […] etoposide and either DAP 1 or DAP-KA (FIG. 15B). The concentration of etoposide was chosen to give 50% killing as measured by MTT assay.

[10] = molecular target: T2, palmitoyl protein thioesterase 1 (PPT1) (human, UniProt P50897 28-306); experiment: cell-based or functional assay
T2 sequence: T1 sequence (P50897 28-306)

Q: Which “palmitoylation of Ras p21s” value [1] does the source give for C/C=C/C/C=C/CCC(=O)[C@H]1O[C@H]1C(N)=O (relative stereo) [cerulenin, [2R, 3S]-2,3-epoxy-4-oxo-7,10-trans, trans-dodecadienamide] here?
A: able to inhibit the palmitoylation

Q: With Cc1c2oc3c(C)ccc(C(=O)N[C@@H]4C(=O)N[C@H](C(C)C)C(=O)N5CCC[C@H]5C(=O)N(C)CC(=O)N(C)[C@@H](C(C)C)C(=O)O[C@@H]4C)c3nc-2c(C(=O)N[C@@H]2C(=O)N[C@H](C(C)C)C(=O)N3CCC[C@H]3C(=O)N(C)CC(=O)N(C)[C@@H](C(C)C)C(=O)O[C@@H]2C)c(N)c1=O [Actinomycin D] (I: T[dV]P[Sar][NMeV] / II: T[dV]P[Sar][NMeV]; ester I:1-I:C, II:1-II:C; linker I:N-II:N via Actinocin(9to1)) as the molecule, how does the “fraction of dose excreted / recovered in the urine” value [2] read?
A: 10%

Q: Which “mode of PPT1 inhibition” value (PPT1 [3]) does the source give for CC[C@H](C)[C@H]1NC(=O)[C@@H](NC(=O)[C@@H](CC(C)C)N(C)C(=O)[C@@H]2CCCN2C(=O)C(C)O)[C@@H](C)OC(=O)[C@H](Cc2ccc(OC)cc2)N(C)C(=O)[C@@H]2CCCN2C(=O)[C@H](CC(C)C)NC(=O)[C@@H](C)C(=O)[C@H](C(C)C)OC(=O)C[C@@H]1O (stereo partly shown) [Didemnin] here?
A: non-competitively inhibit PPT1 activity

Q: Which results are given for COc1cccc2c1C(=O)c1c(O)c3c(c(O)c1C2=O)C[C@@](O)(C(=O)CO)C[C@@H]3O[C@H]1C[C@H](N)[C@H](O)[C@H](C)O1 [Doxorubicin, 5,12-Naphthacenedione, (8 s-cis)-10-[(3-amino-2,3,6-trideoxy-a-L-lyxo-hexopyranosyl)oxy]-7,8,9,1 0-tetrahydro-6,8,11-trihydroxy-8-(hydroxyacetyl)-1-methoxy-hydrochloride]?
A: probability of developing impaired myocardial function ([4]; 400 mg/m^2): 3 to 5%; probability of developing impaired myocardial function ([4]; 450 mg/m^2): 5 to 8%; probability of developing impaired myocardial function ([4]; 500 mg/m^2): 6 to 20%; probability of developing impaired myocardial function ([4]; total cumulative dose of 300 mg/m^2): 1 to 2%

Q: With O=c1cc(N2CCOCC2)oc2c(-c3ccccc3)cccc12 [LY-294002] as the molecule, how does the “cell death (MTT assay)” value [5] read?
A: about 50%

Q: With O=NN(CCCl)C(=O)NC1CCCCC1 [Lomustine, 1-(2-chloro-ethyl)-3-cyclohexyl-1 nitrosourea] as the molecule, how does the “radioactivity excreted as degradation products within 24 hours” value ([2]; oral, 30 mg/m^2 to 100 mg/m^2) read?
A: about half

Q: Which “patients showing a favorable response” value [6] does the source give for N[C@@H](Cc1ccc(N(CCCl)CCCl)cc1)C(=O)O [Melphalan, 4-[bis(2-chloroethyl)amino]-L-phenylalanine] here?
A: one third to one half

Q: With CO[C@@]12[C@H](COC(N)=O)C3=C(C(=O)C(C)=C(N)C3=O)N1C[C@@H]1N[C@@H]12 [Mitomycin] as the molecule, how does the “fraction of dose excreted / recovered in the urine” value [2] read?
A: Approximately 10%

Q: Which “effect on PPT1 enzyme activity” value (PPT1 [7]; preincubation with 1 mM, control or PPT1 transfected cells) does the source give for O=S(=O)(F)Cc1ccccc1 [PMSF, phenylmethylsulfonyl fluoride] here?
A: did not affect the enzyme activity

Q: Which “fraction of dose excreted / recovered in the urine” value [2] does the source give for CC[C@]1(O)C[C@@H]2CN(CCc3c([nH]c4ccccc34)[C@@](C(=O)OC)(c3cc4c(cc3OC)N(C)[C@H]3[C@@](O)(C(=O)OC)[C@H](OC(C)=O)[C@]5(CC)C=CCN6CC[C@]43[C@@H]65)C2)C1 [Vinblastine] here?
A: Approximately 15%

Q: Which “susceptibility of PPT1 overexpressing cells to killing” value (“susceptibility” below) [8] does the source give for COc1cccc2c1C(=O)c1c(O)c3c(c(O)c1C2=O)C[C@@](O)(C(C)=O)C[C@@H]3O[C@H]1C[C@H](N)[C@H](O)[C@H](C)O1 [daunorubicin, 5,12-Naphthacenedione, (8S-cis)-8-acetyl-10-[(3-amino-2,3 ,6-trideoxy-a-L-lyxo-hexanopyranosyl)oxy]-7,8 ,9,1 0-tetrahydro-6,8, 11-trihydroxy-10-methoxy-, hydrochloride] here?
A: markedly decreased susceptibility to killing

Q: For COc1cc([C@@H]2c3cc4c(cc3[C@@H](O[C@@H]3O[C@@H]5CO[C@@H](C)O[C@H]5[C@H](O)[C@H]3O)[C@H]3COC(=O)[C@H]23)OCO4)cc(OC)c1O [etoposide], which “susceptibility” value [8] is on record?
A: markedly decreased susceptibility to killing

Q: What about the “killing (MTT assay)” value ([9]; 10 mM etoposide) of the same molecule?
A: 50%

Q: With CN[C@@H]1C[C@H]2O[C@@](C)([C@@H]1OC)n1c3ccccc3c3c4c(c5c6ccccc6n2c5c31)C(=O)NC4 [staurosporine] as the molecule, how does the “susceptibility” value [8] read?
A: markedly decreased susceptibility to killing

Q: With “AcG-Dap((+/−)α-hydroxyhexadecanoyl)-VKIKK.amide (Ac-G[Dap]VKIKK-NH2; not fully specified (residue 2); printed as AcG-Dap((+/−)α-hydroxyhexadecanoyl)-VKIKK.amide) [DAP-KA, ketoamide form of DAP1]” as the molecule, how does the “potency as inhibitor relative to DAP1” value (PPT1 [7]) read?
A: more potent inhibitor than DAP1

Q: What about the “potency as inducer of cell death relative to DAP1” value ([9]; with etoposide) of the same molecule?
A: more potent inducer of cell death than DAP1

Q: With “AcG-palmitoyl diamino propionate-VKIKK (DAP1) (peptide)” as the molecule, how does the inhibition in an in vitro assay (PPT activity) (% inhibition at 20 µM) [10] read?
A: 85

Q: Which “effect on PPT1 activity” value (PPT1 [7]; cell extract preincubated 15 min at 37° C., Po, rhodopsin, GAP-43, Gα peptide substrates) does the source give for AcGCVKIKK (Ac-GCVKIKK-NH2) here?
A: did not affect PPT activity

B1: [14C]palmitoylated GAP43 peptide (MLCCMRR) (peptide)
peptide: MLCCMRR
modifications: also: [14C]palmitoyl thioester on one Cys, which not given here
Q: With B1 as the molecule, how does the “depalmitoylation by extract of PPT1-overexpressing cells against vector-transfected cells” value [10] read?
A: ~2.5 fold
